Assay results taken from US20250339531A1, “DUX4 POLYPEPTIDES AND NUCLEIC ACIDS FOR TREATING INFLAMMATORY AND AUTOIMMUNE CONDITIONS” (Fred Hutchinson Cancer Center, priority 2021, published 2025).
Entries after “also recorded” stand apart in the source; their conditions may differ.

Key:
[1] = tested on: de novo protein synthesis; assay: HPG Click-iT labeling of nascent proteins; format: cell-based, human; conditions: MB135-iDUX4ca myoblasts, 20-96 hours after a pulse
Experimental: Cells were incubated for 30 minutes in DMEM or RPMI media depleted for methionine and cysteine (Gibco), followed by a 1-hour incubation in methionine-depleted media supplemented with 200 μM HPG (Sigma). Cells were fixed with 4% paraformaldehyde (Electron Microscopy Sciences) diluted in PBS for 10 minutes at room temperature and stained with Click-iT HPG Alexa Fluor 488 Protein Synthesis Assay Kit (Invitrogen) according to manufacturer's protocol.

T-cell activation = assay: Activation of NYESO TCR-engineered T cells by NYESO expressing MEL375 cells (IFNG and IL-2 secretion); format: cell-based, human; conditions: pulse-expression 24 hrs prior to T-cell addition
From the text: To determine whether the combined short- and long-term mechanisms of MHC protein expression in response to cytokine signaling is sufficient to prevent T-cell activation, NYESO expressing MEL375 cells were used in an assay with T-cells engineered with the TCR (T Cell Receptor) for the NYESO antigen and measured T-cell activation by secretion of IFNG and IL-2.

[2] = tested on: MHC class I proteins (HLA-A/B/C); assay: Immunoblot of IFNG-induced MHC class I protein, continuous or pulsed protocol, MB135 myoblasts; format: cell-based, human; conditions: 4 h doxycycline pulse, IFNG 28, 52 or 76 h later
[3] = tested on: MHC class I proteins (HLA-A/B/C); assay: as above; format: cell-based, human; conditions: MB135 cells; for suppression of IFNG-induced MHC class I protein, pulsed protocol: 4 h doxycycline pulse, IFNG added later for 16 h; for suppression of IFNG-induced MHC class I protein, continuous protocol: doxycycline 20 h, IFNG last 16 h
Experimental: (§1) In the “continuous” protocol (similar to the experiments shown in the prior FIGS. 1, 2, 4, 5, and 6), doxycycline is added to induce DUX4 expression at time 0 and four hours later IFNG is added for an additional 16 hours, resulting in 20 hours of continuous DUX4 induction with the last 16 hrs exposed to IFNG.
(§2) In the “pulsed” protocol, doxycycline is added at time 0 to induce DUX4 expression, but after four hours the media is changed to remove the doxycycline, resulting in a pulse of DUX4 mRNA and protein sufficient to induce DUX4 target gene expression (see Resnick et al., Cell Rep. 2019 Nov. 12; 29(7):1812-1820.e5). IFNG is added at 28 hours for a period of 16 hours prior to harvesting the cells. […] This difference is not likely to be due to different amounts of the DUX4 and mutant DUX4 proteins because at the time of harvest both DUX4 and the F67A mutant DUX4 protein levels have declined to similarly low amounts relative to the continuous protocol, but could be due to the activation of DUX4 target genes by the full-length DUX4 since the H3.X/Y proteins show persistent expression in the pulsed protocol.
(§3) Protein samples were harvested in RIPA buffer [150 mM NaCl, 1% NP-40, 0.5% Na-deocycholate, 1% SDS, 25 mM Tris-HCl pH7.4] supplemented with protease and phosphatase inhibitor tablets (Pierce), followed by sonication in Diagenode Bioruptor. Lysate was cleared by centrifugation at 16000×g and quantified using a Pierce BCA assay (Thermo Fisher Scientific). Samples were run on NuPAGE precast polyacrylamide gels (Invitrogen) and transferred to PVDF membrane. Membranes were blocked in PBS containing 0.1% Tween-20 and 5% non-fat dry milk before overnight incubation at 4° C. with primary antibodies (see resource table for a list of antibodies used in this study). Membranes were incubated with horseradish peroxidase-conjugated secondary antibodies for 1 hour at room temperature and SuperSignal chemiluminescent substrate (Thermo Scientific) was used for detection on film with a Mini-medical 90 processor. Membranes were stripped with Restore Western Blot Stripping Buffer (Pierce).

[4] = tested on: immunoproteasome subunits PSMB8, PSMB9, and PSMB10; assay: Immunoblot of IFNG-induced immunoproteasome subunits; format: cell-based, human; conditions: for suppression of IFNG-induced immunoproteasome subunit protein, pulsed protocol / suppression of IFNG-induced immunoproteasome subunit protein, continuous protocol: MB135 cells; for suppression of IFNG-induced immunoproteasome subunit protein, pulsed protocol: 4 h doxycycline pulse, later IFNG 16 h; for suppression of IFNG-induced immunoproteasome subunit protein, continuous protocol: doxycycline 20 h, IFNG last 16 h
Experimental: as §1, §2, §3

[5] = tested on: de novo protein synthesis; assay: [35S]-methionine/cysteine metabolic labeling of nascent protein synthesis; format: cell-based; conditions: human myoblasts, 20-92 h after 4 h doxycycline pulse
Experimental: Cells were treated with and without a 4-hour pulse of doxycycline. Eight hours prior to harvest, cells were incubated in DMEM depleted for methionine and cysteine (Gibco) supplemented with 90 microcurie 35S-methionine/cysteine (Perkin Elmer) and 50 ng/ml […] (R&D Systems). Protein samples were harvested in RIPA buffer [150 mM NaCl, 1% NP-40, 0.5% Na-deocycholate, 1% SDS, 25 mM Tris-HCl pH7.4] supplemented with protease and phosphatase inhibitor tablets (Pierce), followed by sonication in Diagenode Bioruptor. Lysate was cleared by centrifugation at 16000×g and quantified using a Pierce BCA assay (Thermo Scientific). Samples were run on NuPAGE precast polyacrylamide gels (Invitrogen). Gels were stained with InstantBlue Coomassie (Abcam) following manufacturer protocol, placed on whatman paper, wrapped in plastic wrap, and dried. Gels were exposed to phosphor screen, imaged on Typhoon Trio imager, and analyzed with ImageQuant.

[6] = tested on: HLA-A, HLA-B, HLA-C, PSMB8, PSMB9, PSMB10 mRNA nuclear export; assay: Subcellular fractionation of nuclear and cytoplasmic mRNAs and proteins; format: cell-based, human; conditions: DUX4 pulse, IFNG, 44 hours, data not shown
Experimental: MB135iDUX4 myoblasts were pulsed with doxycycline for 4 hours, incubated for 24 hours, supplemented with 50 ng/mL IFNG for 16 hours, and harvested at a terminal time point of 44 hours. Samples divided for whole-cell lysate (WCL) and subcellular fractionation were suspended in 300 μL ice-cold Cyto-lysis buffer (10 mM Tris pH 7.4, 10 mM NaCl, 0.2% NP-40, 1 mM DTT in nuclease free water). Subcellular fractionation samples were centrifuged at 650 RCF to pellet nuclei while cytoplasmic lysate remained in the supernatant. WCL, cytoplasmic, nuclear RNA and protein were harvested for RT-qPCR and immunoblotting, respectively.

Q: Which “nascent protein synthesis by HPG labeling” value [1] does the source give for “DUX4: human DUX4 protein SEQ ID NO:3 expressed from doxycycline inducible codon altered transgene SEQ ID NO:2” here?
A: dramatic reduction in HPG-labeled peptides; also recorded: peak suppression occurred forty-four hours after a pulse of DUX4; also recorded: HPG signal largely recovered by ninety-two hours

Q: What about the “T-cell activation (IFNG and IL-2 secretion)” value (T-cell activation) of the same substance?
A: completely blocks the T-cell activation by the NYESO expressing MEL375 cells

Q: And the “duration of MHC class I protein suppression after a pulse” value [2]?
A: at Least Four Days; also recorded: becomes more pronounced between 24 and 72 hours after a pulse of DUX4; also recorded: for nearly four days; also recorded: suppressed MHC class I even four days later; also recorded: persists days after a DUX4 pulse

Q: And the “suppression of IFNG-induced MHC class I protein, pulsed protocol” value [3]?
A: more profound suppression of the MHC class I proteins; also recorded: even more effectively in the pulsed protocol; also recorded: elicited the same degree of suppression when assayed forty-four hours later; also recorded: suppressed HLA-A/B/C proteins even a day later

Q: What about the “suppression of IFNG-induced MHC class I protein, pulsed protocol” value ([3]; listed as full-length DUX4) of the same substance?
A: suppresses MHC class I expression as well, or slightly better, in the pulsed protocol than in the continuous protocol

Q: And the “suppression of IFNG-induced MHC class I protein, pulsed protocol” value ([3]; listed as wildtype DUX4)?
A: suppressed MHC-I and immunoproteasome subunits

Q: And the “suppression of IFNG-induced MHC class I protein, continuous protocol” value [3]?
A: modest suppression of MHC class I protein; also recorded: suppresses MHC class I proteins; also recorded: IFNG-induction of MHC-I and the immunoproteasome was suppressed; also recorded: MHC class I induction, but not HLA-E is blocked

Q: What about the “suppression of IFNG-induced MHC class I protein, continuous protocol” value ([3]; listed as full-length DUX4) of the same substance?
A: suppress the IFNG induction of MHC class I expression

Q: And the “suppression of IFNG-induced MHC class I protein, continuous protocol” value ([3]; listed as wildtype DUX4)?
A: suppressed IFNG-induced MHC-I and the immunoproteasome expression

Q: What about the “suppression of IFNG-induced immunoproteasome subunit protein, pulsed protocol” value [4] of the same substance?
A: completely blocked; also recorded: elicited the same degree of suppression when assayed forty-four hours later; also recorded: completely block protein accumulation of PSMB9 and PSMB10

Q: And the “suppression of IFNG-induced immunoproteasome subunit protein, pulsed protocol” value ([4]; listed as wildtype DUX4)?
A: suppressed MHC-I and immunoproteasome subunits

Q: And the “suppression of IFNG-induced immunoproteasome subunit protein, continuous protocol” value [4]?
A: completely blocked; also recorded: IFNG-induction of MHC-I and the immunoproteasome was suppressed; also recorded: completely block protein accumulation of PSMB9 and PSMB10

Q: And the “suppression of IFNG-induced immunoproteasome subunit protein, continuous protocol” value ([4]; listed as wildtype DUX4)?
A: suppressed IFNG-induced MHC-I and the immunoproteasome expression

Q: And the “suppression of PSMB9 in PKR knockout background” value ([4]; MB135iDUX4 WT and PKR-KO cells, continuous or pulsed)?
A: evident in both wild-type (WT) and PKR-KO cells

Q: What about the “nascent protein synthesis by 35S labeling” value [5] of the same substance?
A: global de novo protein synthesis was transiently reduced

Q: What about the “nascent protein synthesis by 35S labeling” value ([5]; listed as wildtype DUX4) of the same substance?
A: a reduction in labeled nascent proteins several days following a pulse

Q: And the “mRNA nuclear export and protein localization to the cytoplasm” value [6]?
A: did not disrupt
